In patent US10125358B2, “Methods and compounds for increasing threonyl-tRNA synthetase activity” (UNIVERSITY OF VERMONT AND STATE AGRICULTURAL COLLEGE, priority 2012, dated 2018):
Entries after “also recorded” stand apart in the source; their conditions may differ.

Assays:
[1] = system: Human umbilical vein endothelial cells (HUVECs); experiment: In vitro endothelial tube formation assay on Matrigel; format: cell-based
Method: In Vitro Tube Formation Assay—
Tube formation assays were performed as described (Arnaoutova and Kleinman 2010; Cassavaugh, Hale et al. 2011). Human Umbilical Vein Endothelial Cells (HUVECs) were seeded in 48-well plates (1.5×10^4 cells/well) coated with 100 μl of Matrigel™ Basement Membrane Matrix Growth Factor Reduced (BD Biosciences, San Jose, Calif.) and incubated in Clonetics® EGM®-2 complete media (Lonza, Annandale, N.J.) or EGM®-2 with reduced serum (0.2% fetal bovine serum). Cells were incubated at 37° C. for 6 h then fixed in 10% formalin. Fixed samples were imaged by phase-contrast microscopy or stained with Oregon Green 488 Phalloidin (Molecular Probes, Eugene, Oreg.) then imaged with fluorescence microscopy (2× objective). Number of tubes and tube lengths (in pixels) were quantified using the Simple Neurite Tracer (Longair, Baker et al. 2011) plug-in on ImageJ software (NIH). Statistical analysis of one-way ANOVA was performed with GraphPad Software. Multiple comparisons were performed using the Tukey Test.

HUVECs = experiment: Endothelial cell proliferation assay (alamarBlue); format: cell-based, human
Method: Endothelial Cell Proliferation Assay—
The […] alamarBlue® (Invitrogen) reagent was used to assess cell proliferation (Ahmed, Gogal et al. 1994). HUVECs were seeded in a 96-well dish (1×10^3 cells/well) and grown for 48 h in EGM®-2 media. […] After 48 h, 72 h, or 96 h in culture, 10 μl/well premixed alamarBlue® (Invitrogen) was added and after 3 h at 37° C. the amount of reduced alamarBlue® was quantified by fluorescence (excitation at 530 nm, emission at 590 nm) on a microplate reader (Synergy™ HT, BioTek, Winooski, Vt.).

[2] = system: chorioallantoic membrane (CAM) of chicken embryos; experiment: Chick chorioallantoic membrane (CAM) assay; format: in vivo
Method: Chick Chorioallantoic Membrane Assay—
Fertilized chicken eggs (Sunrise Farms, Catskill, N.Y.) day 1-2 post-laying were incubated in a humidified incubator at 37° C. for 72 h. Cleaned eggs were cracked and plated in a sterile 10 cm^2 tissue culture-treated dish and incubated at 37° C. for another 7 days. On developmental day 10, 1 mm^3 sterile gelatin sponge pieces (Surgifoam®; Johnson & Johnson Wound Management, Somerville, N.J.) were placed within the outer one-third of the membrane between large vessels. […] All compounds were applied in 10 μl to the CAM every 24 h for 72 h. Images were taken using a Leica MZ6 stereomicroscope every 24 h. Compounds were scored according to a modified version of Intensity Scoring as previously described (Ribatti, Nico et al. 2006). Briefly, each experimental condition was given a blinded score from 0-5 based on the change in the extent of vessel convergence and formation in proximity to the sponge from day 0 to day 3. Total score is averaged individual experimental condition scores from at least 15 replicates.
Fertilized chicken embryos were cultured ex-ova and, starting at developmental day 10, agents were applied daily to gelfoam sponges on the CAM. Images were recorded daily over 72 h and scored blindly according to a modified version Intensity Scoring as previously described (Ribatti, Nico et al. 2006). Additional details regarding methods are provided in the Methods and Materials section of Example 1.

HUVEC = experiment: Transwell migration assay; format: cell-based, human; conditions: 4 h
Method: Transwell Migration Assay—
Migration was assessed using transwell inserts (Svensson, Kucharzewska et al. 2011). […] Cultures were incubated for 4 h, fixed in 10% formalin, and stained with 10 μg/ml DAPI solution (Roche) following removal of cells from the top layer of the chamber with a cotton swab. Migrated cells were imaged using a 4× objective on the Olympus IX70 Inverted microscope (Olympus). DAPI-stained nuclei were counted using ImageJ software.

TARS [3] = biological target: T1, TARS (Homo sapiens, UniProt P26639); experiment: Ap4A formation assay (TLC, [α-32P]-ATP); format: biochemical; set-up: His6 (N); made in house; host or cells: E. coli Rosetta 2 (DE3)pLysS, plasmid pET28a hctThrRS
T1 sequence (P26639 1-723): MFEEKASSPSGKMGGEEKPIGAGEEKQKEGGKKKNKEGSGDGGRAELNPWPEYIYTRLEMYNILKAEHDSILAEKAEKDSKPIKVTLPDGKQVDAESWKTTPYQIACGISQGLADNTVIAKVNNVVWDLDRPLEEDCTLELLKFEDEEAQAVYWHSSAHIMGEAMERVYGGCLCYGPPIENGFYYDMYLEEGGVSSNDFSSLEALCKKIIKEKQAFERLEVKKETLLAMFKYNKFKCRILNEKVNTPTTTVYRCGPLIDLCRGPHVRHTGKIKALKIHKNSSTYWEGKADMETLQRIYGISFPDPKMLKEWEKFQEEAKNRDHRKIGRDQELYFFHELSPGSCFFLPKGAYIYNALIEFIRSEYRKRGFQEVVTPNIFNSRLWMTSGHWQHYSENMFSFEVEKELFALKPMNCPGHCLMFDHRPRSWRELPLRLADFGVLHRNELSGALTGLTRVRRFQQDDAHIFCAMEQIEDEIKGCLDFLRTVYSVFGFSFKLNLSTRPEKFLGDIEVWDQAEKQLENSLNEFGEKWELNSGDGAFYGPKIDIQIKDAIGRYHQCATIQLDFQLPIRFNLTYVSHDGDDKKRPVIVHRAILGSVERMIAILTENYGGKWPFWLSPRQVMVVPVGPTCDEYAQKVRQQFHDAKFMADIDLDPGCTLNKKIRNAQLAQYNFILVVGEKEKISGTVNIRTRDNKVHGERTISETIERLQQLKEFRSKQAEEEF

TARS [4] = biological target: T1, TARS; experiment: Ap4G formation assay (TLC, [α-32P]-GTP); format: biochemical; set-up: His6 (N); made in house; host or cells: E. coli Rosetta 2 (DE3)pLysS, plasmid pET28a hctThrRS
TARS [5] = biological target: T1, TARS; experiment: GTPase (GTP hydrolysis) assay; format: biochemical; set-up: His6 (N); made in house; host or cells: E. coli Rosetta 2 (DE3)pLysS, plasmid pET28a hctThrRS; conditions: for GTP hydrolysis rate: 2 mM GTP

Molecule: C[C@@H]1C[C@H](C)C[C@H](C)[C@@H](O)CC(=O)O[C@H]([C@@H]2CC[C@H]2C(=O)O)C/C=C/C=C(/C#N)[C@H](O)[C@@H](C)C1 [BC194]
- number of branches formed by endothelial cells in tube formation assay ([1]; HUVECs on Matrigel, full serum media, 6 h, range of BC194 concentrations): sensitive to subnanomolar concentrations; also recorded: inhibits endothelial tube formation
- tube (branch) length ([1]; HUVECs, range of BC194 concentrations): unaffected; also recorded: does not affect
- concentration required to affect tube formation relative to that required to detect unfolded protein response (phospho-eIF2α) and apoptosis (cleaved caspase-3) ([1]; lower): 100 fold
- VEGF proliferative response, effect of BC194 (HUVECs; HUVECs, 50 ng/ml VEGF, 10 nM BC194): did not significantly reduce
- proliferation (HUVECs; HUVECs, BC194 concentrations below 100 nM): unaffected
- CAM vessel formation, effect of inhibitor ([2]; BC194 10 nM applied daily, basal level and after stimulation with bFGF or VEGF): inhibited vessel formation
- VEGF- and TARS-mediated migration, effect of BC194 (HUVEC; 10 nM BC194 with 50 ng/ml VEGF or 100 nM TARS): reduced both the migration effects of VEGF and TARS
- Ap4A synthesis, inhibition (qualitative) (TARS [3]; human TARS, 10 μM compound): at least partially inhibited
- decrease in Ap4A formation activity (TARS [3]; wildtype TARS, 10 μM compound): 31.0%
- Ap4G synthesis, inhibition (qualitative) (TARS [4]; human TARS, 10 μM compound): at least partially inhibited
- reduction of Ap4G reaction rate (TARS [4]; wildtype TARS, 10 μM BC194): 57%
- change of TARS GTPase activity upon treatment with inhibitor (TARS [5]; 10 μM compound): no observable change

B1: TARS: N-terminal His6-tagged human threonyl-tRNA synthetase expressed and purified from E. coli; SEQ ID NO:2 (protein, listed as Homo sapiens)
chain: MFEEKASSPSGKMGGEEKPIGAGEEKQKEGGKKKNKEGSGDGGRAELNPWPEYIYTRLEMYNILKAEHDSILAEKAEKDSKPIKVTLPDGKQVDAESWKTTPYQIACGISQGLADNTVIAKVNNVVWDLDRPLEEDCTLELLKFEDEEAQAVYWHSSAHIMGEAMERVYGGCLCYGPPIENGFYYDMYLEEGGVSSNDFSSLEALCKKIIKEKQAFERLEVKKETLLAMFKYNKFKCRILNEKVNTPTTTVYRCGPLIDLCRGPHVRHTGKIKALKIHKNSSTYWEGKADMETLQRIYGISFPDPKMLKEWEKFQEEAKNRDHRKIGRDQELYFFHELSPGSCFFLPKGAYIYNALIEFIRSEYRKRGFQEVVTPNIFNSRLWMTSGHWQHYSENMFSFEVEKELFALKPMNCPGHCLMFDHRPRSWRELPLRLADFGVLHRNELSGALTGLTRVRRFQQDDAHIFCAMEQIEDEIKGCLDFLRTVYSVFGFSFKLNLSTRPEKFLGDIEVWDQAEKQLENSLNEFGEKWELNSGDGAFYGPKIDIQIKDAIGRYHQCATIQLDFQLPIRFNLTYVSHDGDDKKRPVIVHRAILGSVERMIAILTENYGGKWPFWLSPRQVMVVPVGPTCDEYAQKVRQQFHDAKFMADIDLDPGCTLNKKIRNAQLAQYNFILVVGEKEKISGTVNIRTRDNKVHGERTISETIERLQQLKEFRSKQAEEEF
modifications: N-terminal His6 tag
- number of tube branches ([1]; 100 nM purified recombinant human TARS added to low serum (0.2% FBS) media, 6 h): significantly increased; also recorded: promotes angiogenesis
- cell proliferation, effect of TARS (HUVECs; HUVECs in low serum (0.2% FBS) media): did not exert a significant effect; also recorded: does not significantly affect cell proliferation
- sensitivity of synthetase-induced CAM angiogenesis to BC194 ([2]; protein plus BC194 applied to CAM): sensitive to BC194
- CAM vessel formation / vascularity, effect of applied synthetase ([2]; purified protein applied daily to gelfoam sponge, 72 h): stimulated vessel formation; also recorded: induces in vivo angiogenesis
- migration of endothelial cells (HUVEC; 100 nM protein in migration compartment): significantly increased migration; also recorded: selectively induces migration
- Ap4A production rate (TARS [3]; 5 μM enzyme, 2 mM threonine, 2 mM ATP): 0.1391 Ap4A/active site/min
- Ap4G formation rate (TARS [4]; 2 mM ATP, 2 mM threonine, 2 mM GTP): 0.1639 Ap4G/active site/min
- GTP hydrolysis rate (TARS [5]; listed as human TARS): potent GTPase activities
- GTP hydrolysis rate (TARS [5]; listed as wildtype): 0.3033 GDP/active site/min
